According to the NIST ThermoML archive (doi:10.1016/j.jct.2006.06.008):

Assay: xn = mol fraction of the nth substance listed
Settings: 101 kPa, Liquid

CCCCO [butan-1-ol] + C1CCCC1
x2 = 0
Settings | mass density [kg/m3] | speed of sound [m/s] | viscosity [mPa·s]
293.15 K | 809.5 | 1257 | 2.941
298.15 K | 805.75 | 1240 | 2.571
303.15 K | 801.8 | 1224 | 2.255

CCCCO [butan-1-ol] + C1CCCCC1
x2 = 0
Settings | mass density [kg/m3] | speed of sound [m/s] | viscosity [mPa·s]
293.15 K | 809.5 | 1257 | 2.941
298.15 K | 805.75 | 1240 | 2.571
303.15 K | 801.8 | 1224 | 2.255

C1CCCCC1 [cyclohexane] + CCCCO
Settings | mass density, 293.15 K [kg/m3] | mass density, 298.15 K [kg/m3] | mass density, 303.15 K [kg/m3] | speed of sound, 293.15 K [m/s] | speed of sound, 298.15 K [m/s] | speed of sound, 303.15 K [m/s] | viscosity, 293.15 K [mPa·s] | viscosity, 298.15 K [mPa·s] | viscosity, 303.15 K [mPa·s]
x1 = 0.0491 | 807.27 | 803.41 | 799.52 | 1254 | 1237 | 1220 | 2.777 | 2.437 | 2.147
x1 = 0.0988 | 804.96 | 801.04 | 797.08 | 1252 | 1234 | 1217 | 2.593 | 2.278 | 2.009
x1 = 0.2003 | 800.76 | 796.72 | 792.63 | 1249 | 1230 | 1211 | 2.254 | 1.984 | 1.756
x1 = 0.3081 | 796.54 | 792.37 | 788.15 | 1246 | 1227 | 1207 | 1.937 | 1.712 | 1.514
x1 = 0.4082 | 792.86 | 788.57 | 784.23 | 1245 | 1224 | 1204 | 1.684 | 1.492 | 1.33
x1 = 0.5125 | 789.41 | 785.01 | 780.55 | 1245 | 1224 | 1202 | 1.449 | 1.293 | 1.16
x1 = 0.6157 | 786.28 | 781.77 | 777.21 | 1247 | 1225 | 1202 | 1.257 | 1.13 | 1.023
x1 = 0.7086 | 783.78 | 779.19 | 774.55 | 1250 | 1227 | 1204 | 1.121 | 1.014 | 0.928
x1 = 0.8022 | 781.56 | 776.91 | 772.21 | 1255 | 1231 | 1208 | 1.047 | 0.955 | 0.874
x1 = 0.9029 | 779.62 | 774.9 | 770.14 | 1263 | 1239 | 1215 | 0.995 | 0.904 | 0.829
x1 = 0.9519 | 778.88 | 774.15 | 769.37 | 1269 | 1244 | 1220 | 0.972 | 0.889 | 0.817
x1 = 1 | 778.62 | 773.92 | 769.19 | 1279 | 1254 | 1230 | 0.968 | 0.887 | 0.816

C1CCCCC1 [cyclohexane] + CCCO
Settings | mass density, 293.15 K [kg/m3] | mass density, 298.15 K [kg/m3] | mass density, 303.15 K [kg/m3] | speed of sound, 293.15 K [m/s] | speed of sound, 298.15 K [m/s] | speed of sound, 303.15 K [m/s] | viscosity, 293.15 K [mPa·s] | viscosity, 298.15 K [mPa·s] | viscosity, 303.15 K [mPa·s]
x1 = 0.0487 | 801.17 | 797.11 | 793.02 | 1222 | 1205 | 1187 | 2.079 | 1.842 | 1.645
x1 = 0.0993 | 798.82 | 794.71 | 790.56 | 1222 | 1204 | 1186 | 1.958 | 1.74 | 1.552
x1 = 0.1967 | 794.76 | 790.54 | 786.28 | 1223 | 1204 | 1185 | 1.735 | 1.544 | 1.379
x1 = 0.2993 | 791.11 | 786.78 | 782.41 | 1225 | 1205 | 1185 | 1.544 | 1.38 | 1.234
x1 = 0.4017 | 787.98 | 783.54 | 779.05 | 1228 | 1207 | 1186 | 1.391 | 1.249 | 1.124
x1 = 0.5071 | 785.25 | 780.71 | 776.12 | 1233 | 1211 | 1189 | 1.253 | 1.126 | 1.015
x1 = 0.6048 | 783.08 | 778.47 | 773.8 | 1238 | 1215 | 1193 | 1.135 | 1.026 | 0.937
x1 = 0.7036 | 781.23 | 776.55 | 771.82 | 1244 | 1221 | 1198 | 1.036 | 0.941 | 0.858
x1 = 0.8062 | 779.66 | 774.94 | 770.17 | 1252 | 1228 | 1204 | 0.98 | 0.895 | 0.822
x1 = 0.9053 | 778.68 | 773.93 | 769.14 | 1262 | 1237 | 1213 | 0.972 | 0.887 | 0.816
x1 = 0.9522 | 778.41 | 773.66 | 768.87 | 1268 | 1243 | 1219 | 0.969 | 0.892 | 0.81
x1 = 1 | 778.62 | 773.92 | 769.19 | 1279 | 1254 | 1230 | 0.968 | 0.887 | 0.816

C1CCCCC1 [cyclohexane] + CCO
Settings | mass density, 293.15 K [kg/m3] | mass density, 298.15 K [kg/m3] | mass density, 303.15 K [kg/m3] | speed of sound, 293.15 K [m/s] | speed of sound, 298.15 K [m/s] | speed of sound, 303.15 K [m/s] | viscosity, 293.15 K [mPa·s] | viscosity, 298.15 K [mPa·s] | viscosity, 303.15 K [mPa·s]
x1 = 0.0473 | 787 | 782.65 | 778.29 | 1162 | 1144 | 1127 | 1.148 | 1.046 | 0.956
x1 = 0.096 | 784.97 | 780.6 | 776.2 | 1165 | 1147 | 1129 | 1.102 | 1.009 | 0.922
x1 = 0.2043 | 781.33 | 776.87 | 772.37 | 1174 | 1155 | 1135 | 1.051 | 0.954 | 0.875
x1 = 0.3028 | 779.4 | 774.86 | 770.28 | 1184 | 1164 | 1144 | 1.005 | 0.918 | 0.838
x1 = 0.3979 | 778.2 | 773.6 | 768.95 | 1195 | 1174 | 1153 | 0.978 | 0.893 | 0.818
x1 = 0.5027 | 777.4 | 772.73 | 768 | 1208 | 1186 | 1164 | 0.954 | 0.87 | 0.796
x1 = 0.5939 | 776.98 | 772.26 | 767.49 | 1219 | 1196 | 1174 | 0.934 | 0.853 | 0.781
x1 = 0.7051 | 776.79 | 772.03 | 767.22 | 1232 | 1209 | 1186 | 0.915 | 0.836 | 0.769
x1 = 0.8055 | 776.89 | 772.11 | 767.28 | 1245 | 1221 | 1197 | 0.908 | 0.833 | 0.769
x1 = 0.9041 | 777.3 | 772.5 | 767.8 | 1258 | 1235 | 1211 | 0.923 | 0.846 | 0.778
x1 = 0.9534 | 777.74 | 772.98 | 768.18 | 1267 | 1242 | 1218 | 0.941 | 0.862 | 0.793
x1 = 1 | 778.62 | 773.92 | 769.19 | 1279 | 1254 | 1230 | 0.968 | 0.887 | 0.816
